Drawing on US11365199B2, “Pyrazole compounds as modulators of FSHR and uses thereof” (Merck Patent GmbH, priority 2013, dated 2022), this text covers EC50 for 27 molecules.

Where a name gives a salt, the structure may show the parent alone. Read-outs that look alike come from different tables or passages of the source.

The target of the test is T1, FSHR (Homo sapiens, UniProt P23945).
T1 construct: expressed in transfected cells; host or cells: CHO (Cho-FSHR-LUC-1-1-43)
T1 sequence (P23945 18-695): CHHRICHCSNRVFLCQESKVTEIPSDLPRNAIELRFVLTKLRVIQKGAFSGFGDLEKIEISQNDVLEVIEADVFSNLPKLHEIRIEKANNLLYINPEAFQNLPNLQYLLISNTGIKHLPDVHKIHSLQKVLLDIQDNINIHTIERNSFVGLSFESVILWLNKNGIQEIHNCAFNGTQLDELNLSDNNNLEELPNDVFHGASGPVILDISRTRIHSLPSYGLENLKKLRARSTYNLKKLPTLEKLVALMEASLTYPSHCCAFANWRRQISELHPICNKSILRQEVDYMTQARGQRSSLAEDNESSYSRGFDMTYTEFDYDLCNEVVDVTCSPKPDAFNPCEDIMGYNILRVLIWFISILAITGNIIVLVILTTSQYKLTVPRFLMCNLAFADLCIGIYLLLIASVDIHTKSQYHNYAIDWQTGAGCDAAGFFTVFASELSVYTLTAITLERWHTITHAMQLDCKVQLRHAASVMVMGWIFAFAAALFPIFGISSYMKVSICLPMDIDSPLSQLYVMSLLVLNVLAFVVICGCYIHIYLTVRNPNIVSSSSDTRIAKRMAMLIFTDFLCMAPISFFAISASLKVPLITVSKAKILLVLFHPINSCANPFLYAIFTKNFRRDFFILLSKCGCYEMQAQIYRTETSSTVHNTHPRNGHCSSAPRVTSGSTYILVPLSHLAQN
In words: EC50 of cyclic AMP production in CHO FSHR cells + EC20 FSH (Assay A). It is filed as cell-based. Summed up: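 Cho-FSHR-LUC cells were exposed to compound dilution series with EC20 FSH ([…]) and 200 μM IBMX for 1 h at 37° C. cAMP was read by HTRF (665/620 nm ratio). Effects are percent of the maximal FSH standard response.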

[1] abbreviates: CHO FSHR cells + EC20 FSH, cAMP HTRF, read-out: Assay A: EC50 of cyclic AMP production.

For orientation: EC50 means the concentration giving half of the maximal effect. Regarding `COc1cc2c(cc1C=C(C)C)-c1c(c(C(=O)N3CCOCC3(C)C)nn1-c1ccsc1)CO2` [Compound 39, (3,3-Dimethyl-morpholin-4-yl)-[7-methoxy-8-(2-methyl-propenyl)-1-thiophen-3-yl-1,4-dihydro-chromeno[4,3-c]pyrazol-3-yl]-methanone], under setting [1], the EC50 is below 0.1 µM. For the molecule `COc1cc2c(cc1S(=O)(=O)C(C)C)-c1c(c(C(=O)N3CCOCC3(C)C)nn1-c1ccsc1)CO2` [Compound 112, (3,3-Dimethyl-morpholin-4-yl)-[7-methoxy-8-(propane-2-sulfonyl)-1-thiophen-3-yl-1,4-dihydro-chromeno[4,3-c]pyrazol-3-yl]-methanone], under setting [1], the EC50 fell in the range of 1 to 5 µM. With `COc1cc2c(cc1C=C(C)C)-c1c(c(C(=O)N(C)C(C)(C)CO)nn1-c1ccsc1)CO2` [Compound 40, 7-Methoxy-8-(2-methyl-propenyl)-1-thiophen-3-yl-1,4-dihydro-chromeno[4,3-c]pyrazole-3-carboxylic acid (2-hydroxy-1,1-dimethyl-ethyl)-methyl-amide], under setting [1], the EC50 is below 0.1 µM.

For `COc1cc2c(cc1-c1ccn(C)n1)-c1c(c(C(=O)N3CCN(C(C)=O)CC3(C)C)nn1-c1ccsc1)CO2` [Compound 216], the EC50 under setting [1] is below 0.1 µM. Consider `COc1cc2c(cc1OC(C)C)-c1c(c(C(=O)N(C)CCN(C)C(=O)C3CCC3)nn1-c1ccsc1)CO2` [Compound 29], for which the EC50 under setting [1] is below 0.1 µM. On to `COCC(C)(C)N(C)C(=O)c1nn(-c2ccsc2)c2c1COc1cc(OC)c(C=C(C)C)cc1-2` [Compound 31], for which the EC50 is below 0.1 µM. On to `COc1cc2c(cc1-c1c(C)cnn1C)-c1c(c(C(=O)N(C)C(C)(C)C)nn1-c1ccsc1)CO2` [Compound 76, 8-(2,4-Dimethyl-2H-pyrazol-3-yl)-7-methoxy-1-thiophen-3-yl-1,4-dihydro-chromeno[4,3-c]pyrazole-3-carboxylic acid tert-butyl-methyl-amide], for which, under setting [1], the EC50 was below 0.1 µM. On to `[2H]C([2H])([2H])OCC1(C)CCCN1C(=O)c1nn(-c2ccsc2)c2c1COc1cc(OC)ccc1-2` (stereo not drawn) [Compound 183, (2-Methoxymethyl-2-methyl-pyrrolidin-1-yl)-(7-methoxy-1-thiophen-3-yl-1,4-dihydro-chromeno[4,3-c]pyrazol-3-yl)-methanone], for which, under setting [1], the 50% effective concentration (EC50) is 0.1 to 1 µM.

With `COc1cc2c(cc1C=C(C)C)-c1c(c(C(=O)N3CCC(O)C3)nn1-c1ccsc1)CO2` (stereo not drawn) [Compound 47, (3-Hydroxy-pyrrolidin-1-yl)-[7-methoxy-8-(2-methyl-propenyl)-1-thiophen-3-yl-1,4-dihydro-chromeno[4,3-c]pyrazol-3-yl]-methanone], the EC50 under setting [1] fell in the range of 1 to 5 µM.

For `COc1cc2c(cc1CN)-c1c(c(C(=O)N3CCOCC3(C)C)nn1-c1ccsc1)CO2` [Compound 166, (8-Aminomethyl-7-methoxy-1-thiophen-3-yl-1,4-dihydro-chromeno[4,3-c]pyrazol-3-yl)-(3,3-dimethyl-morpholin-4-yl)-methanone], the EC50 under setting [1] fell in the range of 1 to 5 µM. For `COc1cc2c(cc1-c1cnn(C(C)C)c1)-c1c(c(C(=O)N3CCOCC3(C)C)nn1-c1ccsc1)CO2` [Compound 191, (3,3-Dimethyl-morpholin-4-yl)-[8-(1-isopropyl-1H-pyrazol-4-yl)-7-methoxy-1-thiophen-3-yl-1,4-dihydro-chromeno[4,3-c]pyrazol-3-yl]-methanone], the EC50 under setting [1] was below 0.1 µM. With `COc1cc2c(cc1C=C(C)C)-c1c(c(C(=O)NC3CCCC(C(=O)OC(C)(C)C)C3)nn1-c1ccsc1)CO2` (stereo not drawn) [Compound 15, 3-{[7-Methoxy-8-(2-methyl-propenyl)-1-thiophen-3-yl-1,4-dihydro-chromeno[4,3-c]pyrazole-3-carbonyl]-amino}-cyclohexanecarboxylic acid tert-butyl ester], under setting [1], the EC50 was above 5 µM. For `COc1cc2c(cc1C1=CCN(C)CC1)-c1c(c(C(=O)N(C)C(C)(C)C)nn1-c1ccsc1)CO2` [Compound 68, 7-Methoxy-8-(1-methyl-1,2,3,6-tetrahydro-pyridin-4-yl)-1-thiophen-3-yl-1,4-dihydro-chromeno[4,3-c]pyrazole-3-carboxylic acid tert-butyl-methyl-amide], under setting [1], the EC50 is below 0.1 µM. Still for that read-out and setting: the result for `COc1cc2c(cc1S(=O)(=O)C1CC1)-c1c(c(C(=O)N3CCOCC3(C)C)nn1-c1ccsc1)CO2` [Compound 106, (8-Cyclopropanesulfonyl-7-methoxy-1-thiophen-3-yl-1,4-dihydro-chromeno[4,3-c]pyrazol-3-yl)-(3,3-dimethyl-morpholin-4-yl)-methanone] reads 0.1 to 1 µM; that for `[2H]C([2H])([2H])N(CCCN(C(=O)c1nn(-c2ccsc2)c2c1COc1cc(OC)c(CC(C)C)cc1-2)C([2H])([2H])[2H])C(C)=O` [Compound 84], above 5 µM; that for `COc1cc2c(cc1C=C(C)C)-c1c(c(C(=O)NCCCNC(=O)C3CCC3)nn1-c1ccsc1)CO2` [Compound 57, 7-methoxy-8-(2-methyl-propenyl)-1-thiophen-3-yl-1,4-dihydro-chromeno[4,3-c]pyrazole-3-carboxylic Acid [3-(cyclobutanecarbonyl-amino)-propyl]-amide], 1 to 5 µM.

`COc1cc2c(cc1C=C(C)C)-c1c(c(C(=O)NCCCc3nnn[nH]3)nn1-c1ccsc1)CO2` [Compound 11, 7-Methoxy-8-(2-methyl-propenyl)-1-thiophen-3-yl-1,4-dihydro-chromeno[4,3-c]pyrazole-3-carboxylic acid [3-(1H-tetrazol-5-yl)-propyl]-amide; trifluoro-acetic acid salt]: the EC50 under setting [1] was in the range of 1 to 5 µM. With `[2H]C([2H])([2H])N(CCNC(C)=O)C(=O)c1nn(-c2ccsc2)c2c1COc1cc(OC)c(C=C(C)C)cc1-2` [Compound 87], under setting [1], the EC50 is 0.1 to 1 µM. As for `CCCn1nc(C)cc1-c1cc2c(cc1OC)OCc1c(C(=O)N3CCOCC3(C)C)nn(-c3ccsc3)c1-2` [Compound 212, (3,3-Dimethyl-morpholin-4-yl)-[7-methoxy-8-(5-methyl-2-propyl-2H-pyrazol-3-yl)-1-thiophen-3-yl-1,4-dihydro-chromeno[4,3-c]pyrazol-3-yl]-methanone], the concentration giving a half-maximal response (EC50) under setting [1] is below 0.1 µM.

Consider `COc1cc2c(cc1C=C(C)C)-c1c(c(C(=O)N3CCCC(C(N)=O)CC3)nn1-c1ccsc1)CO2` (stereo not drawn) [Compound 43, 1-[7-methoxy-8-(2-methyl-propenyl)-1-thiophen-3-yl-1,4-dihydro-chromeno[4,3-c]pyrazole-3-carbonyl]-azepane-4-carboxylic Acid Amide], for which the EC50 under setting [1] is below 0.1 µM.

On to `COc1cc2c(cc1C=C(C)C)-c1c(c(C(=O)N3CCC(C(=O)O)CC3)nn1-c1ccsc1)CO2` [Compound 16, 1-{7-Methoxy-8-(2-methyl-propenyl)-1-thiophen-3-yl-1,4-dihydro-chromeno[4,3-c]pyrazole-3-carbonyl]-piperidine-4-carboxylic acid], for which the EC50 under setting [1] is above 5 µM. The same measure, in the same setting: in the case of `COc1cc2c(cc1-c1ccn(C)c1)-c1c(c(C(=O)N(C)CC3(C)COC3)nn1-c1ccsc1)CO2` [Compound 101, 7-Methoxy-8-(1-methyl-1H-pyrrol-3-yl)-1-thiophen-3-yl-1,4-dihydro-chromeno[4,3-c]pyrazole-3-carboxylic acid methyl-(3-methyl-oxetan-3-ylmethyl)-amide] it was below 0.1 µM; in that of `COc1cc2c(cc1C#N)-c1c(c(C(=O)N3CCOCC3(C)C)nn1-c1ccsc1)CO2` [Compound 86, 3-(3,3-Dimethyl-morpholine-4-carbonyl)-7-methoxy-1-thiophen-3-yl-1,4-dihydro-chromeno[4,3-c]pyrazole-8-carbonitrile], below 0.1 µM.

In the case of `COc1cc2c(cc1-c1ccn(C(C)C)n1)-c1c(c(C(=O)N3CCOCC3(C)C)nn1-c1ccsc1)CO2` [Compound 195, (3,3-Dimethyl-morpholin-4-yl)-[8-(1-isopropyl-1H-pyrazol-3-yl)-7-methoxy-1-thiophen-3-yl-1,4-dihydro-chromeno[4,3-c]pyrazol-3-yl]-methanone], under setting [1], the EC50 was below 0.1 µM. For the molecule `COc1cc2c(cc1-c1cn[nH]c1)-c1c(c(C(=O)NCCN3CCOC3=O)nn1-c1ccsc1)CO2` [Compound 62, 7-Methoxy-8-(1H-pyrazol-4-yl)-1-thiophen-3-yl-1,4-dihydro-chromeno[4,3-c]pyrazole-3-carboxylic acid [2-(2-oxo-oxazolidin-3-yl)-ethyl]-amide], under setting [1], the EC50 was in the range of 0.1 to 1 µM. Same read-out and setting: in the case of `COc1cc2c(cc1S(=O)(=O)C(C)C)-c1c(c(C(=O)NC3(CO)COC3)nn1-c1ccsc1)CO2` [Compound 187, 7-Methoxy-8-(propane-2-sulfonyl)-1-thiophen-3-yl-1,4-dihydro-chromeno[4,3-c]pyrazole-3-carboxylic Acid (3-hydroxymethyl-oxetan-3-yl)-amide] it was above 5 µM; in that of `COc1ccc2c(c1)OCc1c(C(=O)N3CCOCC3(C)C)nn(-c3ccsc3)c1-2` [Compound 128, (3,3-Dimethyl-morpholin-4-yl)-(7-methoxy-1-thiophen-3-yl-1,4-dihydro-chromeno[4,3-c]pyrazol-3-yl)-methanone], above 5 µM.
